Source: patent US20160185797A1, “ALKYNYL ALCOHOLS AND METHODS OF USE” (Genentech, Inc., priority 2013, published 2016)
Like-named read-outs stand apart in the source and are kept apart here.

Key:
[1] = tested on: p52 (NF-kB2) nuclear translocation in HeLa cells; test: p52 (NF-kB2) nuclear translocation assay in HeLa cells, anti-lymphotoxin beta receptor antibody stimulated (non-classical NF-kB signaling), high content imaging; type: cell-based; settings: 100 ng/mL anti-lymphotoxin beta receptor antibody for 5 hours, read-out: p52 HeLa Transloc Assay (IC50)
Method: (§1) Several assays were developed to profile the cellular activities of NIK inhibitors.
(§2) (2) A second set of cell assay are used to define the selectivity of NIK inhibitors toward inhibition of classical vs. non-classical NF-kB signaling and rely on quantification of the nuclear translocation of p52 (NF-kB2) and REL-A (p65) using high content cellular imaging. For the p52 (non-classical NF-kB signaling) nuclear translocation assay, HeLa cells are treated with different concentrations of compounds (0.2% DMSO final) in medium containing 10% fetal bovine serum and then stimulated with 100 ng/mL of an anti-lymphotoxin beta receptor antibody (R&D Systems) for 5 hours. In the REL-A nuclear translocation assay, HeLa cells are incubated with compounds (0.2% DMSO final) for 4.5 hours in medium containing 10% fetal bovine serum before stimulating them with 10 ng/mL tumor necrosis factor (TNF)-α (R&D Systems) for 30 minutes. Cells are fixed with 4% paraformaldehyde, permeabilized by adding 0.1% Triton X-100 in phosphate buffered saline, and then are incubated with either 2 ug/mL anti-p52 antibody (Millipore) or 400 ng/mL anti-REL-A (p65) antibody (Santa Cruz Biotechnology). Finally, the cells are incubated with an Alexa488-labeled secondary antibody (Invitrogen) and DRAQ5 DNA stain (Biostatus). Imaging is carried out using an Opera reader (Perkin Elmer) and data are analyzed with the aid of Acapella software (Perkin Elmer). The p52 or REL-Atranslocation into the nucleus is quantified by the ratio of the nuclear to cytoplasmic signal intensity. […] The compounds in listed in Table 1 have the corresponding inhibitory value (IC50 in micromolar) for NIK p52 Translocation Assay as set forth in Table 2.
(§3) The compounds in listed in Table 1 have the corresponding inhibitory values (IC50 in micromolar) for the Translocation Assays as set forth in Table 2.

[2] = tested on: REL-A (p65) nuclear translocation in HeLa cells; test: REL-A (p65) nuclear translocation assay in HeLa cells, TNF-α stimulated (classical NF-kB signaling), high content imaging; type: cell-based; settings: compound 4.5 h, then 10 ng/mL TNF-α for 30 minutes, read-out: REL-A HeLa Transloc Assay (IC50)
Method: as §1, §2, §3

[3] = target: T1, nuclear factor-kappa B (NF-kB)-inducing kinase (NIK) (Homo sapiens, UniProt Q99558); test: NIK enzyme inhibition assay (Transcreener ADP fluorescence polarization, NIK ADP-FP); type: biochemical
T1 construct: made in house; host or cells: baculovirus-infected insect cells
T1 sequence (Q99558 whole entry): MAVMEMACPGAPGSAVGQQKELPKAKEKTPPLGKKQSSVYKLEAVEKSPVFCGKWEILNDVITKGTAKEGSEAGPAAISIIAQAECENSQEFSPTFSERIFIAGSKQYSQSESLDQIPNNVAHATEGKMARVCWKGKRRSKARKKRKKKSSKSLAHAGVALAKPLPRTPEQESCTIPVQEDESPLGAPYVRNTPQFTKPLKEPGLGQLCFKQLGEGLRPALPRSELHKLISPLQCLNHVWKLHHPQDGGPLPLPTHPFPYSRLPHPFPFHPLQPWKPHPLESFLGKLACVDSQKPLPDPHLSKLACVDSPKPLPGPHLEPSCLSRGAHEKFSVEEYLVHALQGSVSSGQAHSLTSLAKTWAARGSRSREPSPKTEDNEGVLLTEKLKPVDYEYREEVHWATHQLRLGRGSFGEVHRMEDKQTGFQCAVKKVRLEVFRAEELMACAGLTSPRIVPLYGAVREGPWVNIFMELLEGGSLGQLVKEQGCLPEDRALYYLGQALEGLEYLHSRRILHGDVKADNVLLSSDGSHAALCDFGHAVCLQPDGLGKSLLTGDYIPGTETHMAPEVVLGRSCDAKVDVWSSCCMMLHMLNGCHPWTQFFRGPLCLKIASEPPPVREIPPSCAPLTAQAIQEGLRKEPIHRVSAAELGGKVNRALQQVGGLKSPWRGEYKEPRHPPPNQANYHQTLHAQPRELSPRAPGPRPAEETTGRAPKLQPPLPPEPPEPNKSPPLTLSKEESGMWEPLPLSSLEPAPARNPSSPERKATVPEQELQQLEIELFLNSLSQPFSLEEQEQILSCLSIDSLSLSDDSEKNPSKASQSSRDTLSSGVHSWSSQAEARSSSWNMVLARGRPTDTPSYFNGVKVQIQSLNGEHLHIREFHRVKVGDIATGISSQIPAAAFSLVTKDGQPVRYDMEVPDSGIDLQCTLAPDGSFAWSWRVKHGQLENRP

[4] = purified NIK 0.5 nM, 10 μM ATP, pH 7.2, Ki from Morrison's quadratic equation

For `CN1CC[C@@](O)(C#Cc2cccc(-c3nc(C(N)=O)c4ccc(F)cc4n3)c2)C1=O` [Example 43, 7-fluoro-2-(3-[2-[(3R)-3-hydroxy-1-methyl-2-oxopyrrolidin-3-yl]ethynyl]phenyl)quinazoline-4-carboxamide], the IC50 ([1]; Homo sapiens) was 14.1 nM, the IC50 ([2]; Homo sapiens, HeLa) was over 20000 nM and the Ki [3] was 0.08 nM.
`COc1ccc2c(C(N)=O)nc(-c3cccc(C#C[C@]4(O)CCN(C)C4=O)c3)nc2c1` [Example 44, 2-(3-[2-[(3R)-3-hydroxy-1-methyl-2-oxopyrrolidin-3-yl]ethynyl]phenyl)-7-methoxyquinazoline-4-carboxamide] was tested, and the IC50 ([1]; Homo sapiens) was 17.5 nM, the IC50 ([2]; Homo sapiens, HeLa) was over 20000 nM and the Ki [3] was 0.11 nM.
`CN1CC[C@@](O)(C#Cc2cccc(-c3nc(C(N)=O)cc4c3CCC4)c2)C1=O` [Example 46, 1-(3-[2-[(3R)-3-hydroxy-1-methyl-2-oxopyrrolidin-3-yl]ethynyl]phenyl)-5H,6H,7H-cyclopenta[c] pyridine-3-carboxamide] gave an IC50 ([1]; Homo sapiens) of 103 nM, an IC50 ([2]; Homo sapiens, HeLa) of over 20000 nM and a Ki [3] of 0.62 nM.
Compound `CN1CC[C@@](O)(C#Cc2cccc(-c3nc(C(N)=O)cc4c3ncn4C)c2)C1=O` [Example 47, 4-[3-[2-[(3R)-3-hydroxy-1-methyl-2-oxo-pyrrolidin-3-yl]ethynyl]phenyl]-1-methyl-imidazo[4,5-c] pyridine-6-carboxamide] has an IC50 ([1]; Homo sapiens) of 270 nM, an IC50 ([2]; Homo sapiens, HeLa) of at least 20000 nM and a Ki [3] of 0.94 nM.
In the case of `CN1CC[C@@](O)(C#Cc2cccc(-c3nc(C(N)=O)cn4ccnc34)c2)C1=O` [Example 48, 8-[3-[2-[(3R)-3-hydroxy-1-methyl-2-oxo-pyrrolidin-3-yl]ethynyl]phenyl] imidazo[1,2-a]pyrazine-6-carboxamide], the IC50 [1] is reported as 122 nM, the IC50 [2] is reported as at least 20000 nM and the Ki [3, 4] is reported as 0.39 nM.
`CN1CC[C@@](O)(C#Cc2cccc(-c3cc4cc[nH]c4c(C(N)=O)n3)c2)C1=O` [Example 49, 5-[3-[2-[(3R)-3-hydroxy-1-methyl-2-oxo-pyrrolidin-3-yl]ethynyl]phenyl]-1H-pyrrolo [2,3-c]pyridine-7-carboxamide] gave an IC50 ([1]; Homo sapiens) of 8.2 nM, an IC50 ([2]; Homo sapiens, HeLa) of at least 2000 nM and a Ki [3] of 0.05 nM.
In the case of `CN1CC[C@@](O)(C#Cc2cccc(-c3nc(C(N)=O)nc4c3ccn4C)c2)C1=O` [Example 50, 4-[3-[2-[(3R)-3-hydroxy-1-methyl-2-oxo-pyrrolidin-3-yl]ethynyl]phenyl]-7-methyl-pyrrolo[2,3-d]pyrimidine-2-carboxamide], the IC50 ([1]; Homo sapiens) is reported as 346 nM, the IC50 ([2]; Homo sapiens, HeLa) is reported as at least 20000 nM and the Ki [3] is reported as 1.08 nM.
Compound `CN1CC[C@@](O)(C#Cc2cccc(-c3cc(-n4cncn4)cc(C(N)=O)n3)c2)C1=O` [Example 51, 6-[3-[2-[(3R)-3-hydroxy-1-methyl-2-oxo-pyrrolidin-3-yl]ethynyl]phenyl]-4-(1,2,4-triazol-1-yl)pyridine-2-carboxamide] has an IC50 ([1]; Homo sapiens) of 129 nM, an IC50 ([2]; Homo sapiens, HeLa) of at least 20000 nM and a Ki [3] of 0.23 nM.
In the case of `CN1CC[C@@](O)(C#Cc2cccc(-c3cc(-n4cccn4)cc(C(N)=O)n3)c2)C1=O` [Example 52, 6-[3-[2-[(3R)-3-hydroxy-1-methyl-2-oxo-pyrrolidin-3-yl]ethynyl]phenyl]-4-pyrazol-1-yl-pyridine-2-carboxamide], the IC50 ([1]; Homo sapiens) is reported as 26 nM, the IC50 ([2]; Homo sapiens, HeLa) is reported as at least 20000 nM and the Ki [3] is reported as 0.13 nM.
Work on `CN1CC[C@@](O)(C#Cc2cccc(-c3cc(-c4ccnn4C)nc(C(N)=O)n3)c2)C1=O` [Example 53, 4-[3-[2-[(3R)-3-hydroxy-1-methyl-2-oxo-pyrrolidin-3-yl]ethynyl]phenyl]-6-(2-methylpyrazol-3-yl) pyrimidine-2-carboxamide] yielded an IC50 ([1]; Homo sapiens) of 725 nM, an IC50 ([2]; Homo sapiens, HeLa) of at least 20000 nM and a Ki [3] of 0.67 nM.
`CN1CC[C@@](O)(C#Cc2cccc(-c3nc(C(N)=O)c(N)cc3F)c2)C1=O` [Example 59, 3-amino-5-fluoro-6-[3-[2-[(3R)-3-hydroxy-1-methyl-2-oxo-pyrrolidin-3-yl]ethynyl]phenyl] pyridine-2-carboxamide] showed an IC50 ([1]; Homo sapiens) of 23.2 nM, an IC50 ([2]; Homo sapiens, HeLa) of 6320 nM and a Ki [3] of 0.16 nM.
`CN1CC[C@@](O)(C#Cc2cccc(-c3nc(C(N)=O)c(Cl)cc3F)c2)C1=O` [Example 60, 3-chloro-5-fluoro-6-[3-[2-[(3R)-3-hydroxy-1-methyl-2-oxo-pyrrolidin-3-yl]ethynyl]phenyl] pyridine-2-carboxamide] was tested, and the IC50 ([1]; Homo sapiens) was 1390 nM, the IC50 ([2]; Homo sapiens, HeLa) was at least 20000 nM and the Ki [3] was 5.61 nM.
`CN1CC[C@@](O)(C#Cc2cccc(-c3cnc(N)c(C(N)=O)n3)c2)C1=O` [Example 62, 3-amino-6-[3-[2-[(3R)-3-hydroxy-1-methyl-2-oxo-pyrrolidin-3-yl]ethynyl]phenyl] pyrazine-2-carboxamide] was tested, and the IC50 ([1]; Homo sapiens) was 11.5 nM, the IC50 ([2]; Homo sapiens, HeLa) was 1000 nM and the Ki [3] was 0.11 nM.
`CN1CC[C@@](O)(C#Cc2cccc(-c3nc(C(N)=O)cc(-c4cncn4C)n3)c2)C1=O` [Example 66, 2-[3-[2-[(3R)-3-hydroxy-1-methyl-2-oxo-pyrrolidin-3-yl]ethynyl]phenyl]-6-(3-methylimidazol-4-yl) pyrimidine-4-carboxamide] gave an IC50 ([1]; Homo sapiens) of 139 nM, an IC50 ([2]; Homo sapiens, HeLa) of at least 20000 nM and a Ki [3] of 0.16 nM.
Work on `CCn1nccc1-c1cc(C(N)=O)nc(-c2cccc(C#C[C@]3(O)CCN(C)C3=O)c2)n1` [Example 67, 6-(2-ethylpyrazol-3-yl)-2-[3-[2-[(3R)-3-hydroxy-1-methyl-2-oxo-pyrrolidin-3-yl]ethynyl]phenyl] pyrimidine-4-carboxamide] yielded an IC50 [1] of 21.8 nM, an IC50 [2] of at least 20000 nM and a Ki [3, 4] of 0.08 nM.
`CN1CC[C@@](O)(C#Cc2cccc(-c3nc(C(N)=O)cc(-c4ccn(C)n4)n3)c2)C1=O` [Example 68, 2-[3-[2-[(3R)-3-hydroxy-1-methyl-2-oxo-pyrrolidin-3-yl]ethynyl]phenyl]-6-(1-methylpyrazol-3-yl) pyrimidine-4-carboxamide] showed an IC50 ([1]; Homo sapiens) of 89.4 nM, an IC50 ([2]; Homo sapiens, HeLa) of at least 20000 nM and a Ki [3] of 0.53 nM.
Compound `CN1CC[C@@](O)(C#Cc2cccc(-c3nc(C(N)=O)cc(-c4ccn[nH]4)n3)c2)C1=O` [Example 69, 2-[3-[2-[(3R)-3-hydroxy-1-methyl-2-oxo-pyrrolidin-3-yl]ethynyl]phenyl]-6-(1H-pyrazol-5-yl)pyrimidine-4-carboxamide] has an IC50 ([1]; Homo sapiens) of 206 nM, an IC50 ([2]; Homo sapiens, HeLa) of at least 20000 nM and a Ki [3] of 0.6 nM.
Work on `CN1CC[C@@](O)(C#Cc2cccc(-c3nc(C(N)=O)cc(-n4ccnc4)n3)c2)C1=O` [Example 70, 2-[3-[2-[(3R)-3-hydroxy-1-methyl-2-oxo-pyrrolidin-3-yl]ethynyl]phenyl]-6-imidazol-1-yl-pyrimidine-4-carboxamide] yielded an IC50 ([1]; Homo sapiens) of 79 nM, an IC50 ([2]; Homo sapiens, HeLa) of at least 20000 nM and a Ki [3] of 0.94 nM.
`Cc1ccnn1-c1cc(C(N)=O)nc(-c2cccc(C#C[C@]3(O)CCN(C)C3=O)c2)n1` [Example 71, 2-[3-[2-[(3R)-3-hydroxy-1-methyl-2-oxo-pyrrolidin-3-yl]ethynyl]phenyl]-6-(5-methylpyrazol-1-yl) pyrimidine-4-carboxamide] gave an IC50 ([1]; Homo sapiens) of 8.94 nM, an IC50 ([2]; Homo sapiens, HeLa) of at least 20000 nM and a Ki [3] of 0.18 nM.
Compound `CN1CC[C@@](O)(C#Cc2cccc(-c3nc(C(N)=O)c(N)c(-n4cccn4)n3)c2)C1=O` [Example 72, 5-amino-2-[3-[2-[(3R)-3-hydroxy-1-methyl-2-oxo-pyrrolidin-3-yl]ethynyl]phenyl]-6-pyrazol-1-yl-pyrimidine-4-carboxamide] has an IC50 ([1]; Homo sapiens) of 6.43 nM, an IC50 ([2]; Homo sapiens, HeLa) of 6320 nM and a Ki [3] of 0.05 nM.
`CN1CC[C@@](O)(C#Cc2cccc(-c3nc(C(N)=O)cc4c3cnn4C)c2)C1=O` [Example 74, 4-[3-[2-[(3R)-3-hydroxy-1-methyl-2-oxo-pyrrolidin-3-yl]ethynyl]phenyl]-1-methyl-pyrazolo[4,3-c]pyridine-6-carboxamide] gave an IC50 ([1]; Homo sapiens) of 60.2 nM, an IC50 ([2]; Homo sapiens, HeLa) of at least 20000 nM and a Ki [3] of 0.53 nM.
`Cc1cnc2c(-c3cccc(C#C[C@]4(O)CCN(C)C4=O)c3)nc(C(N)=O)cn12` [Example 75, 8-[3-[2-[(3R)-3-hydroxy-1-methyl-2-oxo-pyrrolidin-3-yl]ethynyl]phenyl]-3-methyl-imidazo[1,2-a]pyrazine-6-carboxamide] was tested, and the IC50 ([1]; Homo sapiens) was 66.8 nM, the IC50 ([2]; Homo sapiens, HeLa) was at least 20000 nM and the Ki [3] was 0.38 nM.
`Cc1cn2cc(C(N)=O)nc(-c3cccc(C#C[C@]4(O)CCN(C)C4=O)c3)c2n1` [Example 76, 8-[3-[2-[(3R)-3-hydroxy-1-methyl-2-oxo-pyrrolidin-3-yl]ethynyl]phenyl]-2-methyl-imidazo[1,2-a] pyrazine-6-carboxamide] was tested, and the IC50 ([1]; Homo sapiens) was 101 nM, the IC50 ([2]; Homo sapiens, HeLa) was at least 20000 nM and the Ki [3] was 0.86 nM.
